In series [1] the test system is passive cutaneous anaphylaxis reaction (PCA) in the rat. The experiment in a line: passive cutaneous anaphylaxis reaction (PCA) in the rat. Format: in vivo. On the procedure:
Activity of test compounds in the passive cutaneous anaphylaxis reaction (PCA) in the rat has been shown in the prior art to correlate with the utility of active compounds in the treatment of immediate hypersensitivity conditions such as asthma. Rat reaginic antiserum is prepared substantially according to the method of Mota, Immunology 7, 681-699 (1964) employing male Sprague-Dawley (Carworth Farms) or Wistar (Harlan) rats weighing 100-175 g. which are injected intramuscularly with a solution of egg albumin in saline at a dose of 10 mg. per kg. and intraperitoneally with 2×10^10 Bordetella pertussis organisms. Twelve days after injection, the serum is collected and the antibody titer is determined. The sera are pooled which contain sufficient antibody to cause a 10 mm. spot in the dorsal skin of the rat in the PCA test after dilution 10 fold. The highest dilution of antiserum capable of inducing PCA in the rat 48 to 72 hrs. after injection is normally in the range of 50-80. The selected reaginic anti-sera are stored frozen until use.
For carrying out the test, groups of 5 to 10 male Sprague-Dawley (Carworth Farms) rats, each rat weighing 100-150 g., are used. Forty-eight hours prior to the test, the animals are passively sensitized by intradermal injection of 0.1 ml. of diluted antiserum at various locations on the shaved skin of the back. A dilution of antiserum is used so that a spot following challenge of 20-25 mm. in diameter is obtained. […] A latent period of 48 hrs. is usually allowed before the animals are challenged. According to the usual screening procedure, 15 min. prior to challenge the test drug is administered either by intraperitoneal injection, intravenous injection, or orally by gavage. Challenge involves an intravenous injection of a dose of 25 mg./kg. of egg albumin and 25 mg./kg. of Evans' blue dye in saline. The dye serves simply as a marker. The response of the antigen challenge in the localities on the skin which have been previously sensitized results in increased capillary permeability at the sensitized site and leakage of the blue dye into the area surrounding the sensitized site. The PCA response is scored by measuring the mean spot diameter on the excised and reversed skin 20-30 min. after challange. In each experiment a group of control animals receiving no drug is employed. The percent inhibition of the PCA is calculated by determining the mean diameters of the spots in the control and treated animals and computing the difference between the squares of the mean diameters of the control animals and the treated animals and expressing this difference as a percentage of the square of the mean diameter of the control animals. Results are expressed as percent inhibition.
Rats may be injected intradermally with 0.1 ml. of a solution containing 1 mg./ml. histamine 10 min. prior to sacrificing. This permits a determination of whether the test compound is exerting an antihistaminic effect on the end organ rather than interfering with mediator release from the mast cells in inhibiting the PCA.
Various doses of test compound in parallel experiments are employed when a dose response curve is to be constructed for quantitative comparison of potencies among active compounds. The ID50, the dose at which 50% inhibition of the PCA occurs, is determined by interpolation. In other modifications, various time intervals are allowed between drug treatment and challenge to ascertain the duration of drug effect.

Series [2] concerns immunologically induced bronchoconstriction. Kind of series: allergic respiratory model in the rat (immunologically induced bronchoconstriction). Format: in vivo. The following applies: for ED50: 0.25 h, intraduodenal 15 min. prior to egg albumin challenge, half maximal response (ID1/2 max.), table titled Oral.
Series [3] is described as follows: Acute oral toxicity in the rat. The settings on record: in vivo. From the text:
| *Acute oral toxicity in the rat.

Series [4] has as its system passively sensitized rat peritoneal mast cells. The experiment in a line: antagonism of antigen-induced histamine release from passively sensitized rat peritoneal mast cells. Type of series: cell-based. The following applies: in vitro; for IC50: Mast cell, egg albumin antigen challenge. From the text: The method employed is similar to that described by Kusner, et al., Journal of Pharmacology and Experimental Therapeutics 184, 41-46 (1973). The test involves isolation of mast cells from the rat by lavage of the peritoneal cavity and isolation of the cellular material from the lavage fluid. The cells are sensitized by shaking in antiserum from rats sensitized as described above with respect to the passive cutaneous anaphylaxis test. The sensitized cells are then exposed to the egg albumin antigen and the release of histamine from the cells is measured by an automated fluorometric method. The inhibition of histamine release by the presence of a test compound during challenge of the sensitized cells is a measure of the activity of the test compound. Dose response curves are prepared employing various concentrations of the test substance and the concentration which inhibits histamine release by 50% (IC50) is determined by interpolation.

Where [5] appears, read: 0.25 h, oral, rat, drug 15 min. prior to challenge, 50% inhibition of PCA, read-out: PCA Response (ID50, mg./kg.).
Where [6] appears, read: Rat2, oral, rat, 2 hr. interval between drug dosage and challenge, read-out: PCA Response (ID50, mg./kg.).
Setting [7] is: range for Procedures 2, 3 and 36, read-out: IC50, inhibition of histamine release.

Where a name gives a salt, the structure may show the parent alone. Read-outs that look alike come from different tables or passages of the source.

What is called LD50 is the dose expected to kill half of the subjects tested. Read a high LD50 as a less toxic substance. By IC50 is commonly meant the midpoint of a concentration-inhibition curve.

Regarding `Cc1c(CC(C)C)sc2nc(C(=O)O)[nH]c(=O)c12` [Procedure 43, 3,4-DIHYDRO-5-METHYL-6-(2-METHYLPROPYL)-4-OXOTHIENO[2,3-d]PYRIMIDINE-2-CARBOXYLIC ACID DISODUM SALT SESQUIHYDRATE], in series [1] (setting [5]), the ED50 stood at 6.7 mg/kg. For the molecule `CCOC(=O)C(=O)Nc1sccc1C(N)=O` [Procedure 83, Ethyl N-[3-(Aminocarbonyl)thien-2-yl]oxamate], the ED50 in series [1] (oral, rat, read-out: oral ED50 in the rat PCA test for antiallergic activity) came out at 4.5 mg/kg. As to `O=c1[nH]c(CO)nc2sc3c(c12)CCCC3` [Procedure 55, 5,6,7,8-TETRAHYDRO-2-(HYDROXYMETHYL)BENZOTHIENO[2,3-d]-4(3H)-PYRIMIDINONE], the ED50 in series [1] (setting [6]) is 34 mg/kg.

As to `CCOC(=O)c1nc2sc(CC)cc2c(=O)[nH]1` [Procedure 29, ETHYL 6-ETHYL-3,4-DIHYDRO-4-OXOTHIENO[2,3-d]PYRIMIDINE-2-CARBOXYLATE], the ED50 in series [2] was 1 mg/kg; in series [1] (setting [5]), 3.1 mg/kg. In series [3], this molecule returned an LD50 of 1600 to 5000 mg/kg. On to `Cc1c(CC(C)C)sc2nc(C(=O)O)[nH]c(=O)c12` [Procedure 97, 3,4-Dihydro-5-methyl-6-(2-methylpropyl)-4-oxothieno[2,3-d]pyrimidine-2-carboxylic Acid Dipotassium Salt], for which the ED50 in series [1] (Rattus norvegicus, intravenous, rats, read-out: ID50 in the PCA test, intravenous) came to 0.14 mg/kg; in series [1] (Rattus norvegicus, oral, rats, read-out: ID50 in the PCA test, oral), 2.7 mg/kg. With `CCCCCCc1sc2nc(C(=O)O)[nH]c(=O)c2c1C` [Procedure 36, 6-HEXYL-3,4-DIHYDRO-5-METHYL-4-OXOTHIENO[2,3-d]PYRIMIDINE-2-CARBOXYLIC ACID DISODIUM SALT HYDRATE], the IC50 in series [4] (setting [7]) was in the range of 300 to 800 nM. The “potency in histamine release test relative to cromolyn sodium” value in series [4] is “substantially more potent than cromolyn sodium”. The ED50 in series [1] (setting [5]) is 15 mg/kg. As to `Cc1c(CC(C)C)sc2nc(CO)[nH]c(=O)c12` [Procedure 53, 2-(HYDROXYMETHYL)-5-METHYL-6-(2-METHYLPROPYL)THIENO[2,3-d]PYRIMIDINE-4-(3H)-ONE], the ED50 in series [1] (setting [6]) came to 28 mg/kg.

With `CCc1cc2c(=O)[nH]c(C(=O)O)nc2s1` [Procedure 44, 6-ETHYL-3,4-DIHYDRO-4-OXOTHIENO[2,3-d]PYRIMIDINE-2-ARBOXYLIC ACID DISODIUM SALT DIHYDRATE], the ED50 in series [1] (setting [5]) is 13 mg/kg. Same read-out and setting: with `CCOC(=O)c1nc2sc(CC)c(C)c2c(=O)[nH]1` [Procedure 27, ETHYL 6-ETHYL-3,4-DIHYDRO-5-METHYL-4-OXOTHIENO[2,3-d]PYRIMIDINE-2-CARBOXYLATE] the figure was 11.4 mg/kg; with `CCCCCCc1sc2nc(CO)[nH]c(=O)c2c1C` [Procedure 56, 6-HEXYL-2-(HYDROXYMETHYL)-5-METHYLTHIENO[2,3-d]PYRIMIDINE-4-(3H)-ONE], 28 mg/kg.

Regarding `O=C(O)c1cc(=O)c2c(OCC(O)COc3cccc4oc(C(=O)O)cc(=O)c34)cccc2o1` [Cromolyn sodium, reference compound], the “activity on oral administration in allergic respiratory test” value in series [2] (oral) is “inactive”. In addition, the 50% inhibitory concentration (IC50) in series [4] (read-out: IC50, inhibition of histamine release) was 1000 nM. For the same molecule, in series [1] (intravenous, simultaneously with the antigen, rat, read-out: ID50 in the rat PCA test), the ED50 was approximately 1 mg/kg. For the same molecule, the “activity on oral administration in PCA test” value in series [1] (oral, rat) was “inactive”. On to `CCOC(=O)c1nc2sc(CC(C)C)c(C)c2c(=O)[nH]1` [Procedure 28, ETHYL 3,4-DIHYDRO-5-METHYL-6-(2-METHYLPROPYL)-4-OXOTHIENO[2,3-d]PYRIMIDINE-2-CARBOXYLATE], for which the ED50 in series [1] (setting [5]) was less than 5 mg/kg. With `O=C(O)c1nc2sc3c(c2c(=O)[nH]1)CCCC3` [Procedure 3, 3,4,5,6,7,8-HEXAHYDRO-4-OXOBENZOTHIENO[2,3-d]-PYRIMIDINE-2-CARBOXYLIC ACID DISODIUM SALT DIHYDRATE], in series [4] (setting [7]), the IC50 fell in the range of 300 to 800 nM. Further, the “potency in histamine release test relative to cromolyn sodium” value in series [4] is given as “substantially more potent than cromolyn sodium”. Turning to `CCOC(=O)c1nc2sc3c(c2c(=O)[nH]1)CCCC3` [Procedure 2, ETHYL 3,4,5,6,7,8-HEXAHYDRO-4-OXOBENZOTHIENO[2,3-d]PYRIMIDINE-2-CARBOXYLATE], the ED50 turned out to be 3.8 mg/kg in series [2] and 15.4 mg/kg in series [1] (setting [5]). Further, in series [4] (setting [7]), the IC50 fell in the range of 300 to 800 nM. Besides, the “potency in histamine release test relative to cromolyn sodium” value in series [4] is on record as “substantially more potent than cromolyn sodium”. This molecule also had an LD50 in series [3] of more than 3160 mg/kg.

These data come from patent US4234581A, “Thieno[2,3-d]oxazines” (Mead Johnson & Company, priority 1979, dated 1980).
